Measurements published in publication PMC11579541, “In vitro, in vivo, and in silico approaches for evaluating the preclinical DMPK profiles of ammoxetine, a novel chiral serotonin and norepinephrine reuptake inhibitor” (Frontiers in Pharmacology, 2024).

What was measured:
[1] = PK studies in beagle dogs; format: in vivo; details: dog, in vivo; beagle dogs, same dose (2 mg/kg); prior preliminary experiment by the team, unpublished results; read-out: absolute bioavailability
Experimental: For the PK studies in rats and dogs, a total of 18 SD rats and 15 male beagle dogs were randomly divided into three groups, with six rats or five dogs per group, respectively. Prior to the experiments, all animals underwent a 12-h fasting period, while having free access to water. The animals were administered single oral doses of ammoxetine in three different dose levels: 8 mg/kg, 20 mg/kg, and 50 mg/kg for rats, and 2 mg/kg, 5 mg/kg, and 12.5 mg/kg for dogs, representing low, medium, and high doses. Serial blood samples were collected from the rats at 0, 2, 5, 15, and 30 min, as well as 1, 2, 4, 6, 8, 12, and 24 h post-dosing. For the dogs, blood samples were collected at 0, 5, 15, 30, and 45 min, as well as 1, 2, 4, 6, 8, 12, and 24 h post-dosing. Approximately 0.3 mL of blood was collected from the rats, while 2 mL of blood was collected from the dogs. The blood samples were collected into heparinized tubes. Following centrifugation, plasma samples were obtained and stored at −30°C until further analysis.
For the absolute bioavailability (F, %) study in dogs, the dogs initially received a single gastric gavage of a low dose (2 mg/kg) of ammoxetine, followed by a 1-week washout period. After the washout, the same dose of ammoxetine was administered intravenously (i.v.). To assess the effects of nonfasting on ammoxetine PK, dogs that received a medium dose (5 mg/kg) of ammoxetine via gastric gavage underwent a radical washout period of 1 week. Subsequently, they were administered the same dose of ammoxetine via gastric gavage under nonfasting conditions. To compare sex differences in ammoxetine PK, an additional five female beagle dogs were administered a medium dose (5 mg/kg) of ammoxetine via gastric gavage after a 12-h overnight fast. Blood samples (2 mL) were collected from these dogs into heparinized tubes at predose and at specified time points: 5, 15, 30, and 45 min, as well as 1, 2, 4, 6, 8, 12, and 24 h postdose. For the repeat-dose study, after completing blood collection during the initial administration, dogs receiving a single gastric gavage of a medium dose (5 mg/kg) of ammoxetine under fasting conditions were subsequently orally dosed with seven repeat doses of ammoxetine (5 mg/kg) every 12 h. Trough blood samples were collected before the fourth to last administration to ensure steady-state blood concentrations (C ss ) were achieved. Approximately 2 mL of blood was collected at specified time points after the last dose and transferred into heparinized tubes. All blood samples were then centrifuged at 4,000 r/min for 20 min to obtain plasma samples, which were stored at −30°C until analysis.
To determine the concentration of ammoxetine, 100 μL of L-phencynonate (IS, 50 ng/mL) and 300 μL of methanol were added to 100 μL of plasma samples from rats or dogs. After thorough vortexing, the mixture was centrifuged at 13,800×g for 10 min. The supernatants were then subjected to analysis using LC-MS-MS methods. PK parameters were calculated using DAS (Drug And Statistics for Windows) version 2.0, developed by the Shanghai University of Traditional Chinese Medicine, Shanghai, China. The F was determined by comparing the plasma area under the concentration-time curve (AUC) values after oral (p.o.) and intravenous (i.v.) administration of ammoxetine. F was calculated using the formula: F=AUCp.o./AUCi.v.×100% . Statistical analyses were performed using OriginPro 8.6 software. Paired sample or student’s t-test, as well as one-way ANOVA, were employed to compare the means of two or three groups, with a significance level set at p < 0.05.

P-gp = details: ref Ruike et al., 2010; cited from earlier work

CNCC[C@H](Oc1cccc2ccccc12)c1cccs1 [duloxetine, reference compound]
bioavailability [1]: ~33%
action on P-gp (P-gp): P-gp inhibitor
